According to article PMC11647895 (Journal of Medicinal Chemistry, 2024):

Experiments:
[1] = target: T1, KLHL26 BTB domain (Homo sapiens, UniProt Q53HC5); test: LC-MS, covalent adduct formation with KLHL26; format: binding
T1 sequence (Q53HC5 34-161): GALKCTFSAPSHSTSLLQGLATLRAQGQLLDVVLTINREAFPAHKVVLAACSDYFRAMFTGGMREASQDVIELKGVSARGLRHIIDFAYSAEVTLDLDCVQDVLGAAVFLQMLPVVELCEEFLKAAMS

[2] = target: BTB domain of KEAP1 (Homo sapiens, UniProt Q14145); test: Intact mass spectrometry, covalent adduct formation with KEAP1; conditions: intact MS / LC-MS
[3] = target: C151A mutant of KEAP1 BTB domain (Homo sapiens, UniProt Q14145, C151A); test: Intact mass spectrometry, covalent adduct formation with KEAP1 C151A; conditions: intact MS
[4] = tested on: 36 receptor Cerep panel; test: Cerep receptor panel screen; conditions: 10 μM, 36 receptors
[5] = tested on: Nrf2 KO mouse embryonic fibroblast cells; test: ARE signal in Nrf2 KO cells
[6] = tested on: TK6 cells; test: DNA damage response; format: cell-based, human
[7] = tested on: Keap1-NRF2 nuclear translocation; format: cell-based; conditions: Nrf2 translocation assay, engineered U2OS cell line
[8] = tested on: ARE (Nrf2 activation)
[9] = Reactivity with glutathione in pH 7.4 phosphate buffer; format: physicochemical; conditions: 1 mM compound, 10 mM glutathione, 10% DMSO, 54 h, 37 °C

BTB domain of KEAP1, sequence (Q14145 48-213): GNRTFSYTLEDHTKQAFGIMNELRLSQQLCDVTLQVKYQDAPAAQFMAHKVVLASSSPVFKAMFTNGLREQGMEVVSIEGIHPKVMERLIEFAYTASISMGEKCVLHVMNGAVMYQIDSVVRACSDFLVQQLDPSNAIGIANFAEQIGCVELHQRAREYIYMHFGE
C151A mutant of KEAP1 BTB domain, sequence (Q14145 48-213 C151A): as the sequence (Q14145 48-213) above, with C104A counted along it

CCS(=O)(=O)c1nc(S(=O)(=O)c2ccccc2C#N)c(N2CCN(C)C(=O)[C@H]2C)s1 [Compound 25, 2-[5-[(2R)-2,4-Dimethyl-3-oxo-piperazin-1-yl]-2-ethylsulfonyl-thiazol-4-yl]sulfonylbenzonitrile]
covalent adduct formation / binding to KLHL26 BTB domain [1]: no binding

CCS(=O)(=O)c1nc(S(=O)(=O)c2ccccc2Cl)c(N2CCN(C)C(=O)C2)s1 [Compound 7, 4-[4-(2-Chlorophenyl)sulfonyl-2-ethylsulfonyl-thiazol-5-yl]-1-methyl-piperazin-2-one]
covalent adduct formation with KEAP1 BTB [2]: a single adduct was formed | covalent adduct formation with KEAP1 BTB C151A mutant [3]: no covalent adduct | off-target activity [4]: did not observe any significant off-target activity | ARE signal [5]: did not observe any of the ARE signal

CCP1(=O)CCN(c2sc(S(=O)(=O)CC)nc2S(=O)(=O)c2cccc(Cl)c2Cl)CC1 [Compound 27, 1-[4-(2,3-Dichlorophenyl)sulfonyl-2-ethylsulfonyl-thiazol-5-yl]-4-ethyl-1,4λ^5-azaphosphinane 4-Oxide]
DDR (TK6) with S9 ([6]; with S9 metabolic activation): aneugen | DDR (TK6) ([6]; without S9): negative | covalent adduct formation / binding to KLHL26 BTB domain [1]: no binding

CCS(=O)(=O)c1nc(S(=O)(=O)c2ccccc2Cl)c(N2CCN(C)C(=O)[C@H]2C)s1 [Compound 23, (3R)-4-[4-(2-Chlorophenyl)sulfonyl-2-ethylsulfonyl-thiazol-5-yl]-1,3-dimethyl-piperazin-2-one]
covalent adduct formation / binding to KLHL26 BTB domain [1]: no binding

4-(2-Chlorophenyl)sulfonyl-2-ethylsulfonyl-5-(3-pyridyl)thiazole Hydrochloride [Compound 17]
U2OS EC50 [7]: completely inactive

CC1(C)CC[C@]2(C(=O)O)CC[C@]3(C)[C@H](C(=O)C=C4[C@@]5(C)C=C(C#N)C(=O)C(C)(C)[C@@H]5CC[C@]43C)[C@@H]2C1 [bardoxolone]
EC50 [8]: 9.2 nM

Cc1ccc(S(=O)(=O)c2nc(S(=O)(=O)c3ccccc3)sc2N2CCN(C)CC2)cc1 [Compound 2, 2-(Benzenesulfonyl)-5-(4-methylpiperazin-1-yl)-4-(p-tolylsulfonyl)thiazole]
conversion with glutathione [9]: 30%
